Data published in DBAASP.
≈ marks a conversion by molar mass, not a printed value.

Columns and labels:
Assay in all cases: ≥ marks a high value that may be exact or a test limit, other limits are often not marked, values filed in µg/mL are converted to µM
[1] = tested on: Staphylococcus aureus NCTC 10788
[2] = tested on: Candida albicans NCPF 1467
[3] = tested on: Escherichia coli NCTC 10418
[4] = tested on: Bacillus subtilis ATCC 6051
[5] = tested on: Escherichia coli NCIMB 11843
[6] = tested on: Pseudomonas fluorescens NCIMB 9046
[7] = tested on: Cronobacter sakazakii DSM 4485
[8] = tested on: Cronobacter sakazakii ATCC BAA-894
[9] = tested on: Klebsiella pneumoniae NCIMB 13218
[10] = tested on: Staphylococcus aureus RF122
[11] = tested on: Cronobacter sakazakii DPC 6440
[12] = tested on: Staphylococcus aureus SA113
[13] = tested on: Staphylococcus aureus Newman
[14] = tested on: Staphylococcus aureus RN4220
[15] = tested on: Cronobacter muytjensii ATCC 51329
[16] = tested on: Staphylococcus aureus NCTC 8325-4
[17] = tested on: Salmonella enterica subsp. enterica serovar Typhimurium LT2
Escherichia coli JW0013 = tested on: Escherichia coli JW0013
[18] = tested on: Pseudomonas aeruginosa ATCC 27853

SMILES	MIC [1] [µM]	MIC [2] [µM]	MIC [3] [µM]	MIC [4] [µM]	MIC [5] [µM]	MIC [6] [µM]	MIC [7] [µM]	MIC [8] [µM]	MIC [9] [µM]	MIC [10] [µM]	MIC [11] [µM]	MIC [12] [µM]	MIC [13] [µM]	MIC [14] [µM]	MIC [15] [µM]	MIC [16] [µM]	MIC [17] [µM]	MIC (Escherichia coli JW0013) [µM]	MIC [18] [µM]
CC[C@H](C)[C@H](NC(=O)[C@H](CO)NC(=O)[C@H](CC(N)=O)NC(=O)[C@@H](NC(=O)[C@H](Cc1ccccc1)NC(=O)[C@H](C)NC(=O)[C@H](CO)NC(=O)[C@H](C)NC(=O)[C@H](Cc1ccccc1)NC(=O)[C@H](CC(=O)O)NC(=O)[C@H](CCCCN)NC(=O)[C@H](C)NC(=O)CNC(=O)[C@@H](NC(=O)[C@H](CCCCN)NC(=O)[C@H](CC(C)C)NC(=O)[C@H](CCCCN)NC(=O)[C@H](CCC(=O)O)NC(=O)[C@H](CC(C)C)NC(=O)[C@H](Cc1ccccc1)NC(=O)CN)[C@@H](C)O)C(C)C)C(=O)N[C@@H](CCCCN)C(=O)NCC(=O)N[C@H](C(=O)O)[C@@H](C)O [GFLEKLKTGAKDFASAFVNSIKGT]	≥ 202	≥ 202	≥ 202	–	–	–	–	–	–	–	–	–	–	–	–	–	–	–	–
CC[C@H](C)[C@H](N)C(=O)N[C@@H](Cc1cnc[nH]1)C(=O)N[C@@H](Cc1cnc[nH]1)C(=O)N[C@@H](CCC(N)=O)C(=O)NCC(=O)N[C@@H](CC(C)C)C(=O)N1CCC[C@H]1C(=O)N[C@@H](CCC(N)=O)C(=O)N[C@@H](CCC(=O)O)C(=O)O [IHHQGLPQE]	–	–	–	–	≥ 2500	≥ 2500	≥ 2500	≥ 1250	≥ 2500	≥ 2500	≥ 1250	≥ 2500	≥ 2500	≥ 2500	≥ 2500	≥ 2500	≥ 2500	–	–
CC[C@H](C)[C@H](N)C(=O)N[C@@H](CCCN=C(N)N)C(=O)N[C@@H](CCCN=C(N)N)C(=O)N[C@@H](CCC(N)=O)C(=O)NCC(=O)N[C@@H](CC(C)C)C(=O)N1CCC[C@H]1C(=O)N[C@@H](CCC(=O)O)C(=O)O [IRRQGLPE]	–	–	–	–	≥ 2500	≥ 1250	≥ 1250	≥ 1250	≥ 2500	≥ 1250	≥ 1250	≥ 625	≥ 1250	≥ 1250	≥ 1250	≥ 312	≥ 2500	–	–
CC(C)C[C@H](NC(=O)CNC(=O)[C@H](CCC(N)=O)NC(=O)[C@H](Cc1cnc[nH]1)NC(=O)[C@@H](N)CCCCN)C(=O)N1CCC[C@H]1C(=O)N[C@@H](CCC(N)=O)C(=O)N[C@@H](CCC(=O)O)C(=O)O [KHQGLPQE]	–	–	–	–	≥ 1250	≥ 1250	≥ 2500	≥ 2500	≥ 1250	≥ 1250	≥ 1250	≥ 625	≥ 1250	≥ 1250	≥ 2500	≥ 1250	≥ 1250	–	–
CC[C@H](C)[C@H](NC(=O)[C@H](CCCN=C(N)N)NC(=O)[C@H](CCCN=C(N)N)NC(=O)[C@@H]1CCCN1C(=O)[C@@H]1CCCN1C(=O)[C@H](CCCN=C(N)N)NC(=O)[C@@H]1CCCN1C(=O)[C@H](CCCN=C(N)N)NC(=O)[C@@H]1CCCN1C(=O)[C@H](CC(C)C)NC(=O)[C@H](Cc1ccc(O)cc1)NC(=O)[C@@H]1CCCN1C(=O)[C@H](CC(N)=O)NC(=O)[C@H](CCCCN)NC(=O)[C@H](CC(=O)O)NC(=O)[C@@H](N)C(C)C)C(=O)N[C@@H](Cc1ccc(O)cc1)C(=O)N[C@@H](CC(N)=O)C(=O)N[C@@H](CCCN=C(N)N)C(N)=O [VDKNPYLPRPRPPRRIYNR]	–	–	–	–	–	–	–	–	–	–	–	–	–	–	–	–	–	1.99 (≈ 4.8 µg/mL)	–
CC(C)C[C@H](NC(=O)[C@H](C)NC(=O)[C@H](CC(N)=O)NC(=O)[C@H](CCC(=O)O)NC(=O)[C@H](CC(N)=O)NC(=O)[C@H](CC(C)C)NC(=O)[C@@H](N)C(C)C)C(=O)N[C@@H](CCCN=C(N)N)C(=O)O [VLNENALR]	–	–	–	–	≥ 1250	≥ 1250	≥ 2500	≥ 2500	≥ 1250	≥ 1250	≥ 625	≥ 625	≥ 625	≥ 1250	≥ 2500	≥ 1250	≥ 2500	–	–
CC(C)C[C@H](NC(=O)[C@H](CC(C)C)NC(=O)[C@H](CC(N)=O)NC(=O)[C@H](CCC(=O)O)NC(=O)[C@H](CC(N)=O)NC(=O)[C@H](CC(C)C)NC(=O)[C@@H](N)C(C)C)C(=O)O [VLNENLL]	–	–	–	–	≥ 1250	≥ 1250	≥ 2500	≥ 2500	≥ 1250	≥ 1250	≥ 312	≥ 1250	≥ 1250	≥ 1250	≥ 2500	≥ 1250	≥ 1250	–	–
CC(C)C[C@H](NC(=O)[C@H](CC(N)=O)NC(=O)[C@H](CCC(=O)O)NC(=O)[C@H](CC(N)=O)NC(=O)[C@H](CC(C)C)NC(=O)[C@@H](N)C(C)C)C(=O)N[C@@H](CCCN=C(N)N)C(=O)N[C@@H](CCCN=C(N)N)C(=O)O [VLNENLRR]	–	–	–	–	≥ 2500	≥ 1250	≥ 1250	≥ 1250	≥ 1250	≥ 1250	≥ 1250	≥ 1250	≥ 1250	≥ 1250	≥ 625	≥ 625	≥ 2500	–	32 (≈ 32.4 µg/mL)

Other lines, results leading:

MIC [1] [µM]	MIC [2] [µM]	MIC [3] [µM]	MIC [4] [µM]	MIC [5] [µM]	MIC [6] [µM]	MIC [7] [µM]	MIC [8] [µM]	MIC [9] [µM]	MIC [10] [µM]	MIC [11] [µM]	MIC [12] [µM]	MIC [13] [µM]	MIC [14] [µM]	MIC [15] [µM]	MIC [16] [µM]	MIC [17] [µM]	MIC (Escherichia coli JW0013) [µM]	MIC [18] [µM]	SMILES
3 (≈ 7.6 µg/mL)	6 (≈ 15.2 µg/mL)	12 (≈ 30.4 µg/mL)	–	–	–	–	–	–	–	–	–	–	–	–	–	–	–	–	CC[C@H](C)[C@H](NC(=O)CN)C(=O)NCC(=O)NCC(=O)N[C@@H](C)C(=O)N[C@@H](CC(C)C)C(=O)N[C@@H](CC(C)C)C(=O)N[C@@H](CO)C(=O)N[C@@H](C)C(=O)NCC(=O)N[C@@H](CCCCN)C(=O)N[C@@H](C)C(=O)N[C@@H](C)C(=O)N[C@@H](CC(C)C)C(=O)N[C@@H](CCCCN)C(=O)NCC(=O)N[C@@H](CC(C)C)C(=O)N[C@@H](C)C(=O)N[C@@H](CCCCN)C(=O)NCC(=O)N[C@@H](CC(C)C)C(=O)N[C@@H](C)C(=O)N[C@@H](CCC(=O)O)C(=O)N[C@@H](Cc1cnc[nH]1)C(=O)N[C@@H](Cc1ccccc1)C(=O)N[C@@H](C)C(=O)N[C@@H](CC(N)=O)C(N)=O [GIGGALLSAGKAALKGLAKGLAEHFAN]
–	–	–	≥ 186	–	–	–	–	–	–	–	–	–	–	–	–	–	–	–	CC[C@H](C)[C@H](NC(=O)[C@@H](N)Cc1cnc[nH]1)C(=O)N[C@@H](CCC(N)=O)C(=O)N[C@@H](CCCCN)C(=O)N[C@@H](CCC(=O)O)C(=O)N[C@@H](CC(=O)O)C(=O)N[C@H](C(=O)N1CCC[C@H]1C(=O)N[C@@H](CO)C(=O)N[C@@H](CCC(=O)O)C(=O)N[C@@H](CCCN=C(N)N)C(=O)N[C@@H](Cc1ccc(O)cc1)C(=O)N[C@@H](CC(C)C)C(=O)NCC(=O)N[C@@H](Cc1ccc(O)cc1)C(=O)N[C@@H](CC(C)C)C(=O)N[C@@H](CCC(=O)O)C(=O)N[C@@H](CCC(N)=O)C(=O)N[C@@H](CC(C)C)C(=O)N[C@@H](CC(C)C)C(=O)N[C@@H](CCCN=C(N)N)C(=O)N[C@@H](CC(C)C)C(=O)N[C@@H](CCCCN)C(=O)N[C@@H](CCCCN)C(=O)O)C(C)C [HIQKEDVPSERYLGYLEQLLRLKK]
≥ 439	≥ 439	≥ 439	–	–	–	–	–	–	–	–	–	–	–	–	–	–	–	–	CC[C@H](C)[C@H](NC(=O)[C@H](C)NC(=O)[C@@H]1CCCN1C(=O)[C@H](CCCN=C(N)N)NC(=O)[C@@H](N)CC(C)C)C(=O)N[C@@H](CC(C)C)C(=O)N[C@H](C(=O)N[C@@H](CCCN=C(N)N)C(=O)N[C@H](C(=O)N[C@@H](CCCCN)C(N)=O)[C@@H](C)O)C(C)C [LRPAILVRTK]
–	–	–	–	–	–	–	–	–	–	–	–	–	–	–	–	–	0.24 (≈ 0.492 µg/mL)	–	CC[C@H](C)[C@H](NC(=O)[C@H](CCCN=C(N)N)NC(=O)[C@@H](N)CCCN=C(N)N)C(=O)N[C@@H](CCCN=C(N)N)C(=O)N1CCC[C@H]1C(=O)N[C@@H](CCCN=C(N)N)C(=O)N1CCC[C@H]1C(=O)N1CCC[C@H]1C(=O)N[C@@H](CCCN=C(N)N)C(=O)N[C@@H](CC(C)C)C(=O)N1CCC[C@H]1C(=O)N[C@@H](CCCN=C(N)N)C(=O)N1CCC[C@H]1C(=O)N[C@@H](CCCN=C(N)N)C(=O)N1CCC[C@H]1C(=O)N[C@@H](CCCCN)C(=O)O [RRIRPRPPRLPRPRPK]
–	–	–	–	–	–	–	–	–	–	–	–	–	–	–	–	–	0.3 (≈ 0.627 µg/mL)	–	CC(C)C[C@H](NC(=O)[C@H](CCCN=C(N)N)NC(=O)[C@@H]1CCCN1C(=O)[C@@H]1CCCN1C(=O)[C@H](CCCN=C(N)N)NC(=O)[C@@H]1CCCN1C(=O)[C@H](CCCN=C(N)N)NC(=O)[C@H](CCCCN)NC(=O)[C@H](CCCN=C(N)N)NC(=O)[C@@H](N)CCCN=C(N)N)C(=O)N1CCC[C@H]1C(=O)N[C@@H](CCCN=C(N)N)C(=O)N1CCC[C@H]1C(=O)N[C@@H](CCCN=C(N)N)C(=O)N1CCC[C@H]1C(=O)N[C@@H](CCCN=C(N)N)C(=O)O [RRKRPRPPRLPRPRPR]
